Columns and labels:
Cytochrome P450 2C19 = Cytochrome P450 2C19 (Homo sapiens, UniProt P33261); experiment: Inhibition of CYP2C19 (unknown origin); format: ADME
[1] = Clearance in dog at 0.5 mg/kg, iv; format: ADME, organism-based, Canis lupus familiaris; settings: in vivo
Gamma-secretase = experiment: Inhibition of gamma secretase (unknown origin) assessed as reduction in notch cleavage; format: functional, Homo sapiens
[2] = In vivo modulation of gamma secretase in nonhuman primate assessed as reduction in Abeta40 levels in CSF by measuring AUC(0 to 48 hrs) at 30 mg/kg, po by ELISA; format: functional, Primates, Cerebrospinal fluid; design: scale not given: the % may be the effect or the level left
[3] = Apparent permeability across apical to basolateral side in human Caco2 cells; format: ADME, cell-based; settings: Caco-2
[4] = Drug metabolism in human hepatocytes assessed as mono and di-oxidative metabolites formation after 4 hrs; format: ADME, cell-based, Hepatocyte

Chain of Cytochrome P450 2C19 (P33261 whole entry): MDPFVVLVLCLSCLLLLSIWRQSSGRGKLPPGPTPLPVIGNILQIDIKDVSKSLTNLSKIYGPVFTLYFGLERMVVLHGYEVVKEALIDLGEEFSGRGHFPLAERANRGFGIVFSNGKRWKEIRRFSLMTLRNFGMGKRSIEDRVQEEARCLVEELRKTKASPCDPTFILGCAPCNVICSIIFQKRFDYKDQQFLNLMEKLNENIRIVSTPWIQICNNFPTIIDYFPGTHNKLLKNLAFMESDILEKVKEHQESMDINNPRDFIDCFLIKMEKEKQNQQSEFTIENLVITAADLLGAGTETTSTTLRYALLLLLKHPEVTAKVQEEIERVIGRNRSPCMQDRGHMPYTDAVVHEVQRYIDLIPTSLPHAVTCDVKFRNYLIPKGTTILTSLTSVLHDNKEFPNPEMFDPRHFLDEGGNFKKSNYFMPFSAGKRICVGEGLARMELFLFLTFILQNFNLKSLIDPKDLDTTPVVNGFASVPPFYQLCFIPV

IC50 (Cytochrome P450 2C19): 9.1 µM
clearance [1]: 3.4 mL/min/kg
IC50 (Gamma-secretase): > 10 µM
Papp A→B [3]: 6.6 ×10⁻⁶ cm/s
Drug metabolism [4]: Metabolite_Detected
Structure (SMILES): COc1nc(C2=NOC(C3CC3)C(c3ccc(Cl)cc3)N2)ccc1-n1cnc(C)c1 (stereo unspecified)
Activity [2]: 25%

— ChEMBL document CHEMBL4837257, “Discovery of the Oxadiazine FRM-024: A Potent CNS-Penetrant Gamma Secretase Modulator” (J Med Chem, 2021)
